Assay results reported in article PMC3435281 (PLoS ONE, 2012).

Legend:
[1] = known value; cited from earlier work
[2] = tested on: C57BL/6J splenocytes; assay: CYP1A1, CYP1B1 and IDO mRNA in C57BL/6J splenocytes; format: cell-based, mouse; conditions: 4 hours
Description: An important role for the AHR in the immune system, and specifically T-cell differentiation, has been recognized and continues to be characterized in the literature, [7]. Some ligands of the AHR have the ability to enhance Treg differentiation from naïve T-cells (TCDD, kynurenine), while others direct differentiation towards Th17 effector cells (FICZ). […] IDO has long been known to play a role in Treg generation, and may be central to the mechanism of Dendritic Cell (DC)-directed Treg generation. […] As described in the Methods, naïve T-cells were sorted using magnetic bead separation, and placed in culture for 5 days with allogeneic pDCs separated from BALB/C mice. […] After 5 days, cells were collected and mRNA harvested for qPCR analysis of IDO and FoxP3. […] Naïve T cells were placed in culture with IL-6 and TGF-β, and harvested after 3 days of culture.
A. Spleens were harvested from mice and processed in the standard fashion. […] Same assay as A, but mRNA for CYP1B1 and IDO were measured. C.

[3] = tested on: AHR^−/− splenocytes; assay: CYP1A1 and IDO mRNA in AHR^−/− splenocytes; format: cell-based, mouse; conditions: null cells, SU5416 500 nM or IFN-γ 100 ng/ml, 4 hours
Description: An important role for the AHR in the immune system, and specifically T-cell differentiation, has been recognized and continues to be characterized in the literature, [7]. Some ligands of the AHR have the ability to enhance Treg differentiation from naïve T-cells (TCDD, kynurenine), while others direct differentiation towards Th17 effector cells (FICZ). […] IDO has long been known to play a role in Treg generation, and may be central to the mechanism of Dendritic Cell (DC)-directed Treg generation. We as well as others have previously shown that IDO mRNA can be induced by ligands of the AHR, and that the mechanisms of IDO-directed Treg generation may depend on the AHR [25]. […] As described in the Methods, naïve T-cells were sorted using magnetic bead separation, and placed in culture for 5 days with allogeneic pDCs separated from BALB/C mice. SU5416, TCDD, FICZ, or media alone was added at the start of culture. After 5 days, cells were collected and mRNA harvested for qPCR analysis of IDO and FoxP3. […] We used a dose of 2 ng/ml TGF-β, which in our hands has been a suboptimal dose for Treg generation (4 ng/ml has been optimal in our hands). […]
A. Spleens were harvested from mice and processed in the standard fashion. […] Same assay as A, but mRNA for CYP1B1 and IDO were measured. […] Same assay as in C, but IDO mRNA was assessed. * - p≤0.05. * - p≤0.01. […]

[4] = target: wild-type AHR (pTarget-mAHR) (Mus musculus, UniProt P30561); assay: DRE-luciferase in COS-1 cells transfected with wild-type mAHR
Protocol: (§1) Figure 4 Splenocytes from wild-type and AHR^d mice analyzed by qPCR for CYP1A1. […] After 4 hours they were analyzed by qPCR for CYP1A1 analysis. The curves are normalized from 0 to 100% response. […] Cos-1 cells were transfected with an AHR containing the same point mutation (valine for alanine) thought to be responsible for the low affinity of the AHR^d isoform compared to AHR^b, and compared to the wild-type AHR response. These cells also harbor a luciferase gene next to the DRE. C. Cos-1 cells were exposed to TCDD. […] The graphs represent normalized data from 0 response to 100% response. They are representative of 2 independent experiments.
(§2) These cells also harbor a luciferase gene next to the DRE. […] The data in this figure is normalized from 0 to 100% response.
(§3) After 4 hours of treatment, cells were assayed with dual luciferase® reporter assay system (Promega, Madison, WI). The expressed luciferase activity was measured by MicroLumat Plus luminometer (Berthold Technologies, Hartfordshire, UK).

[5] = target: AHR A375V (AHR^d type) (Mus musculus, UniProt P30561, A375V); assay: DRE-luciferase in COS-1 cells transfected with mAHR-A375V
Protocol: as §1, §2, §3

[6] = tested on: CYP1A1 (induction through AHR^b); assay: CYP1A1 qPCR in wild-type splenocytes; conditions: C57BL/6J, mouse
Protocol: As the above in vitro experiments were performed in cell lines, we next utilized AHR^b (C57BL/6J) and AHR^d congenic mice (on a C57BL/6J background). […] Normalized data was chosen to allow comparison of CYP1A1 upregulation to its maximum in AHR^b versus AHR^d mice.
Figure 4 Splenocytes from wild-type and AHR^d mice analyzed by qPCR for CYP1A1. […] After 4 hours they were analyzed by qPCR for CYP1A1 analysis. The curves are normalized from 0 to 100% response. […] Cos-1 cells were transfected with an AHR containing the same point mutation (valine for alanine) thought to be responsible for the low affinity of the AHR^d isoform compared to AHR^b, and compared to the wild-type AHR response. These cells also harbor a luciferase gene next to the DRE. C. Cos-1 cells were exposed to TCDD. […]
Spleen was harvested from mice at the time of euthanasia and single cell suspensions were made. […] The relative quantitation PCR for IDO1 (Mm00492586-m1) and GAPDH (4352339-E0806018) were performed in the Applied Biosystems 7900HT Fast Real-Time PCR System (Applied Biosystems), and TaqMan Universal PCR Master Mix (Applied Biosystems) was used as a reaction reagent. The relative quantitation PCR for Foxp3, CYP1A1, CYP1B1, and GAPDH were processed by the Bio-Rad iCycler (Bio-Rad) and iQ SYBR Green Supermix ([…]) was used as the reaction reagent.

[7] = tested on: AHR^d; set-up: method as in PMID 16242735; conditions: cited from earlier work

Structure (SMILES) | plasma half-life [1] | induction of CYP1A1 and CYP1B1 mRNA ([2]; titrating doses) | induction of IDO mRNA ([2]; titrating doses) | CYP1A1 mRNA induction ([2]; wild-type cells, SU5416 500 nM) | IDO mRNA induction [3] | EC50 [4] | EC50 [5] | EC50 at 4 h [6] | binding affinity of AHR^d relative to AHR^b [7]
Cc1cc(C)c(C=C2C(=O)Nc3ccccc32)[nH]1 [SU5416, 3-(3,5-dimethyl-1H-pyrrol-2-ylmethylene)-1,3-dihydro-indole-2-one] | 30 min | dramatically induced | induced significant amounts of IDO mRNA | induced CYP1A1 in wild-type | not null cells | – | – | – | –
Clc1cc2c(cc1Cl)Oc1cc(Cl)c(Cl)cc1O2 [TCDD, 2,3,7,8-tetrachlorodibenzo-p-dioxin] | – | – | – | – | – | 0.73 nM | 2.47 nM | 0.461 nM | one-fifteenth to one-twentieth
